The values that follow come from patent publication US7495104B2, “Quinoline or quinazoline derivatives inhibiting auto-phosphorylation of fibroblast growth factor receptors” (Kirin Beer Kabushiki Kaisha, priority 2001, dated 2009).

Structures can show the parent of a compound that is named as a salt.

Chain of Bek (P21802 431-767 limits assumed): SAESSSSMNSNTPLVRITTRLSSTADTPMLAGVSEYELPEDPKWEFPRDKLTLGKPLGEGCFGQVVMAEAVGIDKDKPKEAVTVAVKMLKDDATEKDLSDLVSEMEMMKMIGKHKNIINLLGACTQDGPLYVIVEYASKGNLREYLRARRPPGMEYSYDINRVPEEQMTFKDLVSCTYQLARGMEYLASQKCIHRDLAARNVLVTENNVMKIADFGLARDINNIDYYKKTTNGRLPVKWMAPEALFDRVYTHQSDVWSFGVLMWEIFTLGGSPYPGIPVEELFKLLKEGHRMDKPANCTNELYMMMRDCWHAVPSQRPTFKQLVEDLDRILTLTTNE

The test has as its target Bek (Homo sapiens, UniProt P21802). The experiment in a line: Inhibitory activity against Bek-autophosphorylation using ELISA method in OCUM-2MD3 cells. It counts as cell-based. The conditions noted are these: 1 hr with compound, read-out: IC50 (concentration necessary for inhibiting 50% of Bek-phosphorylation). Put shortly: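 Sandwich ELISA (anti-phosphotyrosine capture, anti-Bek detection, peroxidase, 450 nm) measured Bek autophosphorylation in OCUM-2MD3 lysates after 1 hr compound treatment at 37° C in 0.1% serum medium. IC50 derived by scaling between no-drug (100%) and excess positive control at 1000 nM (0%).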
Background: In an ELISA, binding on a coated surface is turned into a signal by an enzyme label.
For the compound `COc1cc2nccc(Oc3ccc(Nc4ccc(C(C)(C)C)cc4)c(Cl)c3)c2cc1OC` [Compound 11, (4-Tert-butylphenyl)-[2-chloro-4-(6,7-dimethoxyquinolin-4-yloxy)phenyl]amine], the IC50 was 320 nM. Under `COc1cc2c(Oc3ccc(Nc4ccc(C(C)(C)C)cc4)cc3)ccnc2cc1OCCN1CCCCC1` [Compound 38, (4-Tert-butylphenyl)-{4-[6-methoxy-7-(2-piperidin-1-ylethoxy)-quinolin-4-yloxy]phenyl}amine] stands 463 nM. To `COc1cc2c(Oc3ccc(Nc4ccc(C(C)(C)C)cc4)cc3)ccnc2cc1OCC(O)CN1CCCC1` (centres unmarked) [Compound 61, 1-{4-[4-(4-Tert-butyl-phenylamino)phenoxy]-6-methoxyquinolin-7-yloxy}-3-pyrrolidin-1-ylpropan-2-ol] belongs 187 nM; to `COc1cc2c(Oc3ccc(Nc4ccc(C(C)(C)C)cc4)cc3)ccnc2cc1OCCN1CCCC1` [Compound 39, (4-Tert-butylphenyl)-{4-[6-methoxy-7-(2-pyrrolidin-1-ylethoxy)-quinolin-4-yloxy]phenyl}amine], 570 nM. To `COc1cc2c(Oc3ccc(Nc4ccc(C(C)(C)C)cc4)cc3)ccnc2cc1OCCCN1CCC(O)CC1` [Compound 216, 1-(3-{4-[4-(4-Tert-butyl-phenylamino)-phenoxy]-6-methoxy-quinolin-7-yloxy}-propyl)-piperidin-4-ol] belongs 174 nM; to `COc1cc2c(Oc3ccc(NC(=O)NCCC(C)(C)C)c(Cl)c3)ccnc2cc1OCCCNCCO` [Compound 334, 1-(2-Chloro-4-{7-[3-(2-hydroxy-ethylamino)-propoxy]-6-methoxy-quinolin-4-yloxy}-phenyl)-3-(3,3-dimethyl-butyl)-urea], 16.5 nM. With `COc1cc2c(Oc3ccc(NC(=O)NCCC(C)(C)C)cc3)ccnc2cc1OCCCN1CCC(Cc2ccccc2)CC1` [Compound 247, 1-(4-{7-[3-(4-Benzyl-piperidin-1-yl)-propoxy]-6-methoxy-quinolin-4-yloxy}-phenyl)-3-(3,3-dimethyl-butyl)-urea], the IC50 stood at 81.9 nM. For `COc1cc2c(Oc3ccc(Nc4ccc(C(C)(C)C)cc4)cc3)ccnc2cc1OCCCN(C)C` [Compound 46, N1-[4-(Tert-butyl)phenyl]-4-({7-[3-(dimethylamino)propoxy]-6-methoxy-4-quinolyl}oxy)aniline], the IC50 came out at 230 nM. On to `COc1cc2c(Oc3ccc(NC(=O)NCCC(C)(C)C)cc3)ccnc2cc1OCCN(CCO)C1CCCCC1` [Compound 362, 1-[4-(7-{2-[Cyclohexyl-(2-hydroxy-ethyl)-amino]-ethoxy}-6-methoxy-quinolin-4-yloxy)-phenyl]-3-(3,3-dimethyl-butyl)-urea], for which the IC50 amounted to 49.2 nM. To `COc1cc2c(Oc3ccc(NC(=O)NCCC(C)(C)C)cc3)ccnc2cc1OCCN1CCC(CO)CC1` [Compound 371, 1-(3,3-Dimethyl-butyl)-3-(4-{7-[2-(4-hydroxymethyl-piperidin-1-yl)-ethoxy]-6-methoxy-quinolin-4-yloxy}-phenyl)-urea] belongs < 10 nM; to `COc1cc2c(Oc3ccc(NC(=O)NCCC(C)(C)C)c(Cl)c3)ccnc2cc1OCCCCN1CCOCC1` [Compound 320, 1-{2-Chloro-4-[6-methoxy-7-(4-morpholin-4-yl-butoxy)-quinolin-4-yloxy]-phenyl}-3-(3,3-dimethyl-butyl)-urea], 21.4 nM. To `COc1cc2c(Oc3ccc(Nc4ccc(C(C)(C)C)cc4)cc3)ccnc2cc1OCCCCN1CCN(C)CC1` [Compound 29, (4-Tert-butylphenyl)-(4-{6-methoxy-7-[4-(4-methylpiperazin-1-yl)butoxy]quinolin-4-yloxy}phenyl)amine] belongs 931 nM. To `COc1cc2c(Oc3ccc(NC(=O)NCCC(C)(C)C)cc3)ccnc2cc1OCCN(C)CCO` [Compound 328, 1-(3,3-Dimethyl-butyl)-3-[4-(7-{2-[(2-hydroxy-ethyl)-methyl-amino]-ethoxy}-6-methoxy-quinolin-4-yloxy)-phenyl]-urea] belongs 37 nM; to `COc1cc2c(Oc3ccc(Nc4ccc(C(C)(C)C)cc4)c(Cl)c3)ccnc2cc1OCCCN1CCC(O)CC1` [Compound 276, 1-(3-{4-[4-(4-Tert-butyl-phenylamino)-3-chloro-phenoxy]-6-methoxy-quinolin-7-yloxy}-propyl)-piperidin-4-ol], 1130 nM.

As to `COc1cc2c(Oc3ccc(NC(=O)NCCC(C)(C)C)c(F)c3)ccnc2cc1OCCNCCO` [Compound 329, 1-(3,3-Dimethyl-butyl)-3-(2-fluoro-4-{7-[2-(2-hydroxy-ethylamino)-ethoxy]-6-methoxy-quinolin-4-yloxy}-phenyl)-urea], the IC50 was determined as 20.8 nM.

With `COc1cc2c(Oc3ccc(Nc4ccc(C(C)(C)C)cc4)c(F)c3)ccnc2cc1OCCN(CCO)CCO` [Compound 335, 2-[(2-{4-[4-(4-Tert-butyl-phenylamino)-3-fluoro-phenoxy]-6-methoxy-quinolin-7-yloxy}-ethyl)-(2-hydroxy-ethyl)-amino]-ethanol], the IC50 worked out at 95.3 nM.

Regarding `COc1cc2c(Oc3ccc(NC(=O)NCCC(C)(C)C)cc3Cl)ccnc2cc1OCCCN1CC(C)OC(C)C1` (centres unmarked) [Compound 319, 1-(3-Chloro-4-{7-[3-(2,6-dimethyl-morpholin-4-yl)-propoxy]-6-methoxy-quinolin-4-yloxy}-phenyl)-3-(3,3-dimethyl-butyl)-urea], the IC50 worked out at 22 nM.

As for `COc1cc2c(Oc3ccc(Nc4ccc(C(C)(C)C)cc4)cc3)ccnc2cc1OCCN1CC(C)CC(C)C1` (centres unmarked) [Compound 239, (4-Tert-butyl-phenyl)-(4-{7-[2-(3,5-dimethyl-piperidin-1-yl)-ethoxy]-6-methoxy-quinolin-4-yloxy}-phenyl)-amine], the IC50 was found to be 895 nM. Under `COc1cc2c(Oc3ccc(NC(=O)NCCC(C)(C)C)c(Cl)c3)ccnc2cc1OCC1CCN(CCO)CC1` [Compound 170, 1-(2-Chloro-4-{7-[1-(2-hydroxy-ethyl)-piperidin-4-ylmethoxy]-6-methoxy-quinolin-4-yloxy}-phenyl)-3-(3,3-dimethyl-butyl)-urea] stands 24.4 nM.

On to `COc1cc2c(Oc3ccc(NC(=O)NCCC(C)(C)C)cc3)ccnc2cc1OCCCCN1CCN(C)CC1` [Compound 159, 1-(3,3-Dimethyl-butyl)-3-(4-{6-methoxy-7-[4-(4-methyl-piperazin-1-yl)-butoxy]-quinolin-4-yloxy}-phenyl)-urea hydrochloride], for which the IC50 was 26.2 nM. In the case of `COc1cc2c(Oc3ccc(Nc4ccc(C(C)(C)C)cc4)cc3)ccnc2cc1OCC(O)CN1CC(C)OC(C)C1` (centres unmarked) [Compound 253, 1-{4-[4-(4-Tert-butyl-phenylamino)-phenoxy]-6-methoxy-quinolin-7-yloxy}-3-(2,6-dimethyl-morpholin-4-yl)-propan-2-ol], the IC50 is 28.5 nM. Regarding `COc1cc2nccc(Oc3ccc(NC(=O)NC4CCCC(C)(C)C4)cc3)c2cc1OC` (centres unmarked) [Compound 108, 1-[4-(6,7-Dimethoxy-quinolin-4-yloxy)-phenyl]-3-(3,3-dimethyl-cyclohexyl)-urea], the IC50 is < 10 nM. To `COc1cc2c(Oc3ccc(Nc4ccc(C(C)(C)C)cc4)cc3Cl)ccnc2cc1OCCN1CCC(CO)CC1` [Compound 308, [1-(2-{4-[4-(4-Tert-butyl-phenylamino)-2-chloro-phenoxy]-6-methoxy-quinolin-7-yloxy}-ethyl)-piperidin-4-yl]-methanol] belongs 204 nM.
